Normal melting temperature data for one molecule are collected here from the NIST ThermoML archive (doi:10.1021/je060380p).

± gives the expanded uncertainty stated by the source.

The conditions of the series: Crystal; visual observation.

For `c1ccc2cc3ccccc3cc2c1` [anthracene], the Normal melting temperature was 216 ± 1 °C.
